The text below walks through data of article PMC11302729, “Repurposing Hsp90 inhibitors as antimicrobials targeting two-component systems identifies compounds leading to loss of bacterial membrane integrity” (Microbiology Spectrum, 2024).

In one data set the target is T1, E. coli EnvZ (Escherichia coli, UniProt P0AEJ4).
T1 construct: Cytoplasmic domains from S. aureus PhoR and E. coli EnvZ; His6; made in house; host or cells: E. coli RIL
Put plainly: HK autophosphorylation inhibition, EnvZ. The class given is biochemical. Here is the method:
Cytoplasmic domains from S. aureus PhoR and E. coli EnvZ as well the CA domain of Thermotoga maritima CheA were cloned in pNIC28-Bsa4 ([54]) plasmid containing His6-tag expressed in E. coli RIL and purified as previously described ([21], [55], [56]) using His-affinity and size exclusion chromatography. Briefly, E. coli RIL strains carrying the appropriate plasmid were grown in 1 L Luria broth (LB) (Merck Millipore) supplemented with kanamycin (100 µg/mL) with shaking (200 r.p.m.) at 37°C. When OD600 reached 0.5, 1 mM isopropyl-ß-D-1-thiogalactopyranoside (IPTG) was added to induce protein expression and cells were grown for 3 more hours. Cells were harvested by centrifugation (4,000 g, 4°C), resuspended in 40 mL buffer A (50 mM Tris-HCl pH 8.0, 0.5 M NaCl, 10% glycerol, and 1 mM phenylmethanesulfonyl fluoride), sonicated (4°C, 5 min with pulses of 15 sec at intervals of 1 min), and centrifuged (11,000 g, 4°C, 60 min). Supernatant was passed through a 5-mL HisTrap HP column (GE Healthcare) equilibrated in buffer A using the AKTA system (GE Healthcare). His-column was washed with buffer A (80 mL), and a linear gradient of imidazole (range 0 to 0.25 M) in buffer A was applied. The purest fractions evaluated by SDS-PAGE were collected, concentrated by ultrafiltration in a Amicon Ultra-15 (10- or 30-kDa exclusion) (Merck Millipore), and further purified by gel filtration using Superdex 200 column (GE Healthcare), equilibrated in buffer B (50 mM TrisHCl, pH 8.0, 0.2 M NaCl, and 5% glycerol). Purified proteins were then concentrated using ultrafiltration and stored at −80°C.
Autophosphorylation inhibition assays were performed in kinase assay buffer [100 mM Tris-HCl (pH 8.0), 5 mM MgCl2, 10 mM DTT], containing 5 µg of purified HK and 10 mM ATP for 30 min at 25°C. The reaction was stopped by adding gel loading buffer containing 16% SDS before loading the reaction on a 12% SDS-PAGE. […] To detect autophosphorylation, the gel was transferred to a nitrocellulose membrane (GE Healthcare) at 100 V in the transfer buffer (25 mM Tris, 192 mM Glycine, 10% Methanol). The membrane was then blocked using Tris-buffered saline solution with 0.1% vol/vol Tween 20 (TBS-T) supplied with 5% bovine serum albumin. The phosphorylated histidine was detected by western blotting by then incubating the membrane for 60 min with 1:1,000 anti-N1-phosphohistidine antibody (Merck Millipore) in TBS-T followed by a washing step for 30 min with TBS-T and a final 60-min incubation with 1:10,000 horseradish […] anti-rabbit IgG (Promega) in TBS-T. Chemiluminescent reaction was measured using Pierce ECL immunoblotting substrate (Thermo Scientific) in a LAS 3000 image analyzer (Fujifilm Life Science, Tokyo, Japan) followed by densitometric analysis using Multi Gauge image-analysis software (Fujifilm Life Science, Tokyo, Japan). The inhibitor concentrations required to halve the chemiluminescence intensity (IC50) were determined using Prism 4.1 (GraphPad Software, San Diego, CA, USA).

For data set [1], the system named is Pasteurella haemolytica ATCC 29701. Put plainly: MIC (microdilution) against P. haemolytica. Type of data set: cell-based. As to conditions: for MIC: Mannheimia haemolytica. The gist of the method:
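Optical density at 600 nm after 18 h incubation at 37°C determined the MIC as the lowest inhibitory concentration. Twofold dilutions in Mueller-Hinton broth covered 50–0.39 µg/mL final.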

The test system of another data set is HEK293 cells. In words: in vitro. The class given is cell-based. The conditions noted are these: for Selectivity Index: LC50/MIC (HEK293 / S. aureus); for LC20: human, 24 h. The gist of the method:
(§1)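 Cytotoxicity was measured in HEK293 cells (5 × 10^4/well, precultured 24 h) exposed 24 h at 37 °C to compounds from a twofold dilution series made at 100–3.2 μg/mL in serum-free, phenol-red-free DMEM. Viability was read with 10% Alamar Blue (45 min, ex 541/em 590 nm) relative to 1% DMSO vehicle. Curves: four-parameter fit, bottom constrained 0.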

The nature of the next data set: in vitro. The conditions noted are these: human. Type of data set: cell-based. The gist of the method:
as §1

Setting [2] is: bound from first screening at 2 mM.
The mark [3] stands for this setting: ATCC29701, read-out: MIC P. haemolytica, Table 1.
Setting [4] is: ATCC29701, read-out: MIC P. haemolytica, Table ST1.

Molecules are shown by their SMILES. Values after ≈ are worked out from the molar mass of the structure shown. Values joined by “and” are separate entries in the source; they are usually repeats but may differ in a detail not shown here. Identical values can stand only once. Like-named read-outs stand apart in the source and are kept apart here.

T1 sequence (P0AEJ4 180-450): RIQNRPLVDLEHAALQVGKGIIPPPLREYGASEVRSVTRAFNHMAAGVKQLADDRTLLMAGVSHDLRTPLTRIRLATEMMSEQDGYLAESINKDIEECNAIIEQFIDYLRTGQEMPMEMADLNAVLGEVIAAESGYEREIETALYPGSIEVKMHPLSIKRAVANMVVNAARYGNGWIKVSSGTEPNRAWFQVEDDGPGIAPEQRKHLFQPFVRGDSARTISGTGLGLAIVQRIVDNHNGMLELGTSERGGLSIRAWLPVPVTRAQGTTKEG

Broadly, the IC50 is the concentration at which inhibition is half-maximal. What is called MIC is the smallest concentration in the dilution series that meets the test's criterion for growth inhibition. As a reminder, the CC50 is the concentration giving 50% cytotoxicity. The low end stands for harm at low concentration, the high end for better tolerance by the cells. At E. coli EnvZ (setting [2]), `COc1ccc(-c2[nH]nc(C(F)(F)F)c2-c2ccccc2)c(O)c1` [DPP-2] had an IC50 of under 2000 µM. In addition, the minimal inhibitory concentration (MIC) in data set [1] (setting [3]) and in data set [1] (setting [4]) was 50 µg/mL (≈ 150 µM) throughout. Moreover, the “Selectivity Index” value with HEK293 cells was 0.60. For the same compound, the CC50 at 24 h in “in vitro” is 7.34 µg/mL and 21.9 µM.
In turn, `Oc1ccc(-c2n[nH]c(C(F)(F)F)c2-c2ccc(Cl)cc2)c(O)c1` [DPP-5] registered a concentration for half-maximal inhibition (IC50) at E. coli EnvZ (± SD, n = 2, 10 mM ATP) of 117 ± 6.3 µM. Besides, the minimal inhibitory concentration (MIC) in data set [1] (ATCC29701, Table 1, read-out: MIC P. haemolytica) came out at 12.5 µg/mL (≈ 35.2 µM). In data set [1] (Table ST1), the “MIC P. haemolytica” value is 12.5 µg/mL (≈ 35.2 µM). In the data set with HEK293 cells, the “Selectivity Index” value is reported as 4.13 and the LC20 is on record as 5 µg/mL (≈ 14.1 µM). Further, the CC50 at 24 h in “in vitro” is 12.9 µg/mL and 36.3 µM.
In the case of `COc1ccc(-c2[nH]nc(C(F)(F)F)c2-c2ccc(Cl)cc2)c(O)c1` [DPP-6], inhibition against E. coli EnvZ (± SD, n = 2, 10 mM ATP) was half-maximal at 98 ± 11.8 µM (IC50). The MIC in data set [1] (setting [3]) was determined as 12.5 µg/mL (≈ 33.9 µM). For the same compound, the minimum inhibitory concentration (MIC) in data set [1] (setting [4]) was 12.5 µg/mL (≈ 33.9 µM). In the data set with HEK293 cells, the “Selectivity Index” value turned out to be 4.58 and the LC20 was 6 µg/mL (≈ 16.3 µM). Moreover, the CC50 at 24 h in “in vitro” is 14.3 µg/mL and 38.6 µM.
Consider `CCOc1ccc(-c2[nH]nc(C(F)(F)F)c2-c2ccc(Cl)cc2)c(O)c1` [DPP-7], for which, on E. coli EnvZ (setting [2]), the half-inhibitory concentration (IC50) is under 2000 µM. The MIC in data set [1] (setting [3]) and in data set [1] (setting [4]) was 25 µg/mL (≈ 65.3 µM) in each case. Also, the “Selectivity Index” value in the data set with HEK293 cells came to 3.47. In addition, the half-maximal cytotoxic concentration (CC50) at 24 h in “in vitro” was 10.8 µg/mL and 28.5 µM.
On E. coli EnvZ (± SD, n = 2, 10 mM ATP), `COc1ccc(-c2c(C(F)(F)F)n[nH]c2-c2ccc(O)cc2O)cc1` [DPP-12] showed an IC50 of 427 ± 9.1 µM. Moreover, the minimum inhibitory concentration (MIC) in data set [1] (setting [3]) came out at 50 µg/mL (≈ 143 µM); in data set [1] (setting [4]), 62.5 µg/mL (≈ 178 µM). The “Selectivity Index” value in the data set with HEK293 cells was 2.54. In the data set “in vitro”, the CC50 at 24 h is 31.7 µg/mL and 90.7 µM.
`COc1ccc(-c2c(C(F)(F)F)n[nH]c2-c2ccc(OC)cc2O)cc1` [DPP-13]: at E. coli EnvZ (± SD, n = 2, 10 mM ATP), the IC50 is 175 ± 10.1 µM. Further, the minimal inhibitory concentration (MIC) in data set [1] (setting [3]) and in data set [1] (setting [4]) was over 250 µg/mL each time. In addition, the “Selectivity Index” value with HEK293 cells is on record as 2.39. For the same compound, in “in vitro”, the cytotoxic concentration (CC50) at 24 h was 29.9 µg/mL and 82.1 µM.
